# Results reported in US11504367B2, “Compounds and methods for treating oxalate-related diseases” (OxaluRx, Inc., priority 2019, dated 2022).
# Key:
# [1] = target: recombinant full-length human hydroxyacid oxidase 1 (HAO1), the equivalents of hGOX (Homo sapiens (Human), UniProt Q9UJM8); test: In-vitro human glycolate oxidase (hGOX) assay (Amplex red fluorescence); format: biochemical; settings: 6 nM recombinant human GO, 85 μM glycolate, 10 min preincubation
# Method in brief: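 Activity was read as Amplex Red fluorescence (560/590 nm), with 50 μM reagent added after a 10 min room-temperature incubation. The enzyme, full-length human HAO1, was in pH 7.4 HEPES buffer containing KCl, NaCl, MgCl2 and 0.01% Triton X-100.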
# [2] = In-vivo pharmacokinetic evaluation (exposure, AUC fold-over Example 1); settings: male CD-1 mice, 10 mg/kg oral gavage in 20% (2-Hydroxypropyl)-β-cyclodextrin, plasma at 0.5, 2 and 6 hours post-dose; AUC expressed as fold-over Example 1
# Method: In-vivo exposure of test compounds was determined in 5-6 week old male CD-1 mice. Mice (n=2/compound) received 10 mg/kg of each compound formulated in 20% (2-Hydroxypropyl)-β-cyclodextrin (10 μL/g) by oral gavage. At 0.5 hours, 2 hours, and 6 hours post-dose, blood samples were collected from the submandibular vein using EDTA as an anticoagulant and stored on ice. Plasma samples were obtained by centrifugation at 4° C. and were analyzed immediately or stored at −20° C. until analysis. Compounds were extracted from mouse plasma with acetonitrile and quantified by LC-MS-MS in the negative ion mode using a standard curve.
# Chain of recombinant full-length human hydroxyacid oxidase 1 (HAO1), the equivalents of hGOX (Q9UJM8 whole entry): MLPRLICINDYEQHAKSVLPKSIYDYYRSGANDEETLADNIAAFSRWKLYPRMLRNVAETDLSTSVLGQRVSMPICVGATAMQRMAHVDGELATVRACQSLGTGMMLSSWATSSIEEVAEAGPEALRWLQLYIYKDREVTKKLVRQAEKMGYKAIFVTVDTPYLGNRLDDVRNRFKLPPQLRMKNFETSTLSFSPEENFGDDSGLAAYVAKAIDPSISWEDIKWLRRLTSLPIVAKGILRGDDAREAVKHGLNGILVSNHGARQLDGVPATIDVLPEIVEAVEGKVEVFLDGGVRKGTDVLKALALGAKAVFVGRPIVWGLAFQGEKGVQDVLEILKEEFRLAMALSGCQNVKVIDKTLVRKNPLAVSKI
Compound,IC50 [1] [nM],AUC Fold over Ex. 1 [2]
"O=C(O)c1nn[nH]c1Oc1cccc(C#CC2CCOCC2)c1 [Example 41, 5-(3-(2-(Tetrahydro-2H-pyran-4-yl)ethynyl)phenoxy)-1H-1,2,3-triazole-4-carboxylic Acid]",13,0.1
"O=C(O)c1nn[nH]c1Oc1cccc(C#CCC2CCCC2)c1 [Example 344, 5-(3-(3-Cyclopentylprop-1-ynyl)phenoxy)-1H-1,2,3-triazole-4-carboxylic Acid]",4,1.9
"Cn1cc(C#Cc2cccc(Oc3[nH]nnc3C(=O)O)c2)cn1 [Example 221, 5-(3-(2-(1-Methyl-1H-pyrazol-4-yl)ethynyl)phenoxy)-1H-1,2,3-triazole-4-carboxylic Acid]",1,0.1
"O=C(O)c1nn[nH]c1Oc1cccc(C#CCC2CCC2)c1 [Example 345, 5-(3-(3-Cyclobutylprop-1-ynyl)phenoxy)-1H-1,2,3-triazole-4-carboxylic Acid]",8,2.6
"CC(C)C#Cc1cccc(Oc2[nH]nnc2C(=O)O)c1 [Example 10, 5-(3-(3-Methylbut-1-ynyl)phenoxy)-1H-1,2,3-triazole-4-carboxylic Acid]",28,1.6
"CCCC#Cc1cccc(Oc2[nH]nnc2C(=O)O)c1 [Example 300, 5-(3-(Pent-1-ynyl)phenoxy)-1H-1,2,3-triazole-4-carboxylic Acid]",9,2.5
"CC#Cc1cccc(Oc2[nH]nnc2C(=O)O)c1 [Example 6, 5-(3-(Prop-1-ynyl)phenoxy)-1H-1,2,3-triazole-4-carboxylic Acid]",7,0.8
"O=C(O)c1nn[nH]c1Oc1ccc(C#CC2CCC2)cc1 [Example 24, 5-(4-(2-Cyclobutylethynyl)phenoxy)-1H-1,2,3-triazole-4-carboxylic Acid]",16,0.3
"O=C(O)c1nn[nH]c1Oc1ccc(C#CCC2CC2)cc1 [Example 301, 5-(4-(3-Cyclopropylprop-1-ynyl)phenoxy)-1H-1,2,3-triazole-4-carboxylic Acid]",15,0.7
"O=C(O)c1nn[nH]c1Oc1cccc(C#CCc2ccc(F)cc2)c1 [Example 354, 5-(3-(3-(4-Fluorophenyl)prop-1-ynyl)phenoxy)-1H-1,2,3-triazole-4-carboxylic Acid]",5,2.4
"O=C(O)c1nn[nH]c1Oc1ccc(C#CCC(F)(F)F)cc1 [Example 305, 5-(4-(4,4,4-Trifluorobut-1-ynyl)phenoxy)-1H-1,2,3-triazole-4-carboxylic Acid]",18,0.3
"O=C(O)c1nn[nH]c1Oc1cccc(C#CC2CCC(F)(F)CC2)c1 [Example 347, 5-(3-(2-(4,4-Difluorocyclohexyl)ethynyl)phenoxy)-1H-1,2,3-triazole-4-carboxylic Acid]",21,0.7
"O=C(O)c1nn[nH]c1Oc1cccc(C#CCC2CCCCC2)c1 [Example 346, 5-(3-(3-Cyclohexylprop-1-ynyl)phenoxy)-1H-1,2,3-triazole-4-carboxylic Acid]",3,0.7
"O=C(O)c1nn[nH]c1Oc1cccc(C#Cc2nccs2)c1 [Example 342, 5-(3-(2-(Thiazol-2-yl)ethynyl)phenoxy)-1H-1,2,3-triazole-4-carboxylic Acid]",2,0.4
"O=C(O)c1nn[nH]c1Oc1cccc(C#CC2CCC2)c1 [Example 25, 5-(3-(2-Cyclobutylethynyl)phenoxy)-1H-1,2,3-triazole-4-carboxylic Acid]",18,2.9
"O=C(O)c1nn[nH]c1Oc1ccc(C#CC2CCCC2)cc1 [Example 28, 5-(4-(2-Cyclopentylethynyl)phenoxy)-1H-1,2,3-triazole-4-carboxylic Acid]",18,0.3
"CCC#Cc1cccc(Oc2[nH]nnc2C(=O)O)c1 [Example 304, 5-(3-(But-1-ynyl)phenoxy)-1H-1,2,3-triazole-4-carboxylic Acid]",12,1.6
"O=C(O)c1nn[nH]c1Oc1cccc(C#Cc2cccc3cn[nH]c23)c1 [Example 324, 5-(3-(2-(1H-Indazol-7-yl)ethynyl)phenoxy)-1H-1,2,3-triazole-4-carboxylic Acid]",4,1.7
"CCOC(=O)c1c(Oc2cccc(C#CCC3CC3)c2)n[nH]c1C [Example 358, Ethyl 3-(3-(3-cyclopropylprop-1-ynyl)phenoxy)-5-methyl-1H-pyrazole-4-carboxylate]",> 1000,
"CS(=O)(=O)c1cccc(C#Cc2cc(Oc3[nH]nnc3C(=O)O)ccc2F)c1 [Example 267, 5-(4-Fluoro-3-(2-(3-(methylsulfonyl)phenyl)ethynyl)phenoxy)-1H-1,2,3-triazole-4-carboxylic Acid]",2,
"CCOC(=O)c1nn[nH]c1[S+]([O-])c1cccc(C#CCC(C)C)c1 (stereo not drawn) [Example 373, Ethyl 5-(3-(4-methylpent-1-ynyl)phenylsulfinyl)-1H-1,2,3-triazole-4-carboxylate]",> 1000,
"O=C(O)c1nn[nH]c1Cc1cccc(C#CCC2CC2)c1 [Example 365, 5-(3-(3-Cyclopropylprop-1-ynyl)benzyl)-1H-1,2,3-triazole-4-carboxylic Acid]",98,
"CC(C)(O)C#Cc1cccc(Oc2[nH]nnc2C(=O)O)c1 [Example 215, 5-(3-(3-Hydroxy-3-methylbut-1-ynyl)phenoxy)-1H-1,2,3-triazole-4-carboxylic Acid]",48,
"CC(C)(C)CC#Cc1cccc(Oc2[nH]nnc2C(=O)O)c1 [Example 372, 5-(3-(4,4-Dimethylpent-1-ynyl)phenoxy)-1H-1,2,3-triazole-4-carboxylic Acid]",> 1000,

# The remaining lines, values ahead:
IC50 [1] [nM],AUC Fold over Ex. 1 [2],Compound
1,0.2,"Cc1ccc(C#Cc2cccc(Oc3[nH]nnc3C(=O)O)c2)cn1 [Example 295, 5-(3-(2-(6-Methylpyridin-3-yl)ethynyl)phenoxy)-1H-1,2,3-triazole-4-carboxylic Acid]"
36,1.5,"CCC#Cc1ccc(Oc2[nH]nnc2C(=O)O)cc1 [Example 303, 5-(4-(But-1-ynyl)phenoxy)-1H-1,2,3-triazole-4-carboxylic Acid]"
210,0.2,"CC(C)(C)C#Cc1ccc(Oc2[nH]nnc2C(=O)O)cc1 [Example 16, 5-(4-(3,3-Dimethylbut-1-ynyl)phenoxy)-1H-1,2,3-triazole-4-carboxylic Acid]"
10,1.1,"O=C(O)c1nn[nH]c1Oc1cccc(C#Cc2ccccc2)c1 [Example 139, 5-(3-(2-Phenylethynyl)phenoxy)-1H-1,2,3-triazole-4-carboxylic Acid]"
5,0.2,"COc1ccc(C#Cc2cccc(Oc3[nH]nnc3C(=O)O)c2)cn1 [Example 284, 5-(3-(2-(6-Methoxypyridin-3-yl)ethynyl)phenoxy)-1H-1,2,3-triazole-4-carboxylic Acid]"
3,0.5,"COc1ccc(C#Cc2ccc(Oc3[nH]nnc3C(=O)O)cc2)cn1 [Example 282, 5-(4-(2-(6-Methoxypyridin-3-yl)ethynyl)phenoxy)-1H-1,2,3-triazole-4-carboxylic Acid]"
15,0.9,"CCCC#Cc1ccc(Oc2[nH]nnc2C(=O)O)cc1 [Example 299, 5-(4-(Pent-1-ynyl)phenoxy)-1H-1,2,3-triazole-4-carboxylic Acid]"
1,0.0,"O=C(O)c1nn[nH]c1Oc1cccc(C#Cc2ccc3[nH]ncc3c2)c1 [Example 307, 5-(3-(2-(1H-Indazol-5-yl)ethynyl)phenoxy)-1H-1,2,3-triazole-4-carboxylic Acid]"
5,0.1,"Cc1cccc(C#Cc2ccc(Oc3[nH]nnc3C(=O)O)cc2)n1 [Example 293, 5-(4-(2-(6-Methylpyridin-2-yl)ethynyl)phenoxy)-1H-1,2,3-triazole-4-carboxylic Acid]"
1,,"Cc1cc(C#Cc2cccc(Oc3[nH]nnc3C(=O)O)c2)ccn1 [Example 296, 5-(3-(2-(2-Methylpyridin-4-yl)ethynyl)phenoxy)-1H-1,2,3-triazole-4-carboxylic Acid]"
2,,"Cn1ncc2cccc(C#Cc3ccc(Oc4[nH]nnc4C(=O)O)cc3)c21 [Example 325, 5-(4-(2-(1-Methyl-1H-indazol-7-yl)ethynyl)phenoxy)-1H-1,2,3-triazole-4-carboxylic Acid]"
90,,"C#Cc1ccc(Oc2[nH]nnc2C(=O)O)cc1 [Example 2, 5-(4-Ethynylphenoxy)-1H-1,2,3-triazole-4-carboxylic Acid]"
1,,"O=C(O)c1nn[nH]c1Oc1ccc(C#Cc2ccc(F)cc2)cc1 [Example 288, 5-(4-(2-(4-Fluorophenyl)ethynyl)phenoxy)-1H-1,2,3-triazole-4-carboxylic Acid]"
12,,"CC#Cc1ccc(Oc2[nH]nnc2C(=O)O)cc1 [Example 5, 5-(4-(Prop-1-ynyl)phenoxy)-1H-1,2,3-triazole-4-carboxylic Acid]"
1,,"Cc1ccc(Oc2[nH]nnc2C(=O)O)cc1C#Cc1ccccc1 [Example 262, 5-(4-Methyl-3-(2-phenylethynyl)phenoxy)-1H-1,2,3-triazole-4-carboxylic Acid]"
